Consider six compounds from paper PMC10154330, “Machine learning-driven multifunctional peptide engineering for sustained ocular drug delivery” (Nature Communications, 2023).

The experiment relates to melanin nanoparticles (mNPs). Nature of the experiment: In vitro melanin binding assay (binding capacity and Kd, RED device, HPLC). More on the design: species or system Sepia officinalis. Conditions: binding capacity and dissociation constant of ocular drugs, melanin. The method, then: The solutions (400 µL) were then mixed thoroughly with 400 µL of 1 mg/mL mNPs in pH 6.5 PBS solution and transferred to the inner reservoir of the rapid equilibrium dialysis (RED) device inserts (8 K MWCO). The outer reservoir was filled with 800 µL of pH 6.5 PBS solution. The samples were incubated on an orbital shaker with temperature control at 37 °C and 300 rpm for 48 h (n = 3). The solutions from outer reservoir (free drug) were than collected and transferred to an autosampler vial for HPLC analysis (Prominence LC2030, Shimadzu, Columbia, MD) with photodiode-array detection (PDA) system. […] The amount of bound drug was used to calculate the binding capacity (mol drug/mg melanin) and the dissociation constant (Kd) as previously described[20],[34].

Take `CCN(CC)CCCC(C)Nc1ccnc2cc(Cl)ccc12` (stereo not drawn) [Chloroquine]: the “Binding Capacity (mole/mg melanin)” value turned out to be 3.8e-7 mole/mg melanin and binding was put at a Kd of 76 µM.
For `CC12CC3CC(C)(C1)CC(N)(C3)C2` [Memantine], the “Binding Capacity (mole/mg melanin)” value amounted to 2.07e-7 mole/mg melanin and the affinity, expressed as Kd, was 804 µM.
The matching figures for `COCCc1ccc(OCC(O)CNC(C)C)cc1` (stereo not drawn) [Metoprolol]: 2.69E-08 mole/mg melanin and 495 µM.
The matching figures for `CCNCCNC(=O)c1c(C)[nH]c(/C=C2\C(=O)Nc3ccc(F)cc32)c1C` [N-Desethyl Sunitinib]: 2.61e-6 mole/mg melanin and 2.13 µM.
As to `CC(C)(C)NC[C@H](O)COc1nsnc1N1CCOCC1` [Timolol], the “Binding Capacity (mole/mg melanin)” value worked out at 3.9e-8 mole/mg melanin and binding was put at a Kd of 120 µM.
As for `CC1(C)O[C@@H]2C[C@H]3[C@@H]4CCC5=CC(=O)C=C[C@]5(C)[C@@]4(F)[C@@H](O)C[C@]3(C)[C@]2(C(=O)CO)O1` [Triamcinolone Acetonide], the “Binding Capacity (mole/mg melanin)” value is given as 2.24E-08 mole/mg melanin and binding was characterised by a dissociation constant (Kd) of 12.5 µM.
